# Test results published in patent US9701689B2, “Substituted pyridines and pyridazines as CCR10 receptor inhibitors” (KYOWA HAKKO KIRIN CO., LTD., priority 2012, dated 2017).
# Target: T1, human CCR10 (Homo sapiens, UniProt P46092)
# T1 construct: expressed in transfected cells; host or cells: KJMGER8 cells (Namalwa cell-derived line), beta-estradiol-induced; hCCR10G16 cells
# T1 sequence (P46092 1-362): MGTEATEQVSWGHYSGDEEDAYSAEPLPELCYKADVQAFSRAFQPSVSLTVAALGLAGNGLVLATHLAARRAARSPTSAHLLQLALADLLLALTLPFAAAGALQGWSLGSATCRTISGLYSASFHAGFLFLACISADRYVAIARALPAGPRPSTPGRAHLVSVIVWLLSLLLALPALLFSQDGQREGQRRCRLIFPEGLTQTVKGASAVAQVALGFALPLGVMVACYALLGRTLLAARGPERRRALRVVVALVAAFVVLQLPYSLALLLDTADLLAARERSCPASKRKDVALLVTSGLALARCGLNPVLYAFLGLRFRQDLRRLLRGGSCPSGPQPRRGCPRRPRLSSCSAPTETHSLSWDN
# Assay: CCR10 antagonistic effect: calcium assay of human CCR10 (CTACK-induced increase of intracellular calcium in hCCR10G16 cells)
# Type: cell-based
# Details: at a concentration of not more than 1000 nmol/L; human CCR10-expressing hCCR10G16 cells, 300 nmol/L CTACK added; read-out: inhibition of increase in the calcium ion concentration
# Summary of the method: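 Inhibition of CTACK-evoked calcium flux (max minus min Fluo-3 fluorescence over ~5 min, FDSS) was calculated against control in β-estradiol-induced human CCR10/Gα16 KJMGER8 cells, after 30 min compound preincubation at 37 °C; CTACK added from a 300 nmol/L solution.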
row,inhibition at up to 1 µM [%],SMILES
1,≥ 50,"NS(=O)(=O)c1cc(Nc2ccc(Br)cc2F)c(C(=O)N2CCC(c3ccc(F)cc3)CC2)cn1 [Compound 91, 4-(4-bromo-2-fluorophenylamino)-5-[4-(4-fluorophenyl)piperidine-1-carbonyl]pyridine-2-sulfonamide]"
2,≥ 50,"Cc1cccc(Nc2c(C(=O)N3CCC(c4ccc(F)cc4)CC3)cnc(S(=O)(=O)Nc3ccon3)c2C)c1F [Compound 264, 4-(2-fluoro-3-methylphenylamino)-5-[4-(4-fluorophenyl)piperidine-1-carbonyl]-N-(isoxazol-3-yl)-3-methylpyridine-2-sulfonamide]"
3,≥ 50,"NS(=O)(=O)c1cc(Nc2ccc(Cl)cc2F)c(C(=O)N2CCC(c3ccc(F)cc3)CC2)cn1 [Compound 80, 4-(4-chloro-2-fluorophenylamino)-5-[4-(4-fluorophenyl)piperidine-1-carbonyl]pyridine-2-sulfonamide]"
4,≥ 50,"Cc1nc(C(F)(F)F)ccc1Nc1c(C(=O)N2CCC(c3ccc(F)cc3)CC2)cnc(S(N)(=O)=O)c1C [Compound 245, 5-[4-(4-fluorophenyl)piperidine-1-carbonyl]-3-methyl-4-[2-methyl-6-(trifluoromethyl)pyridin-3-ylamino]pyridine-2-sulfonamide]"
5,≥ 50,"Cc1cnc(CNS(=O)(=O)c2cc(Nc3ccc(F)cc3C)c(C(=O)N3CCC(c4ccc(F)cc4)CC3)cn2)cn1 [Compound 134, 4-(4-fluoro-2-methylphenylamino)-5-[4-(4-fluorophenyl)piperidine-1-carbonyl]-N-[(5-methylpyrazin-2-yl)methyl]pyridine-2-sulfonamide]"
6,≥ 50,"N#Cc1ccc(Cl)cc1Nc1c(C(=O)N2CCC(c3ccc(F)cc3)CC2)cnc(S(N)(=O)=O)c1Cl [Compound 290, 3-chloro-4-(5-chloro-2-cyanophenylamino)-5-[4-(4-fluorophenyl)piperidine-1-carbonyl]pyridine-2-sulfonamide]"
7,≥ 50,"Cc1cc(F)ccc1Nc1cc(S(N)(=O)=O)nnc1C(=O)N1CCC(c2ccc(F)cc2)CC1 [Compound 229, 5-(4-fluoro-2-methylphenylamino)-6-[4-(4-fluorophenyl)piperidine-1-carbonyl]pyridazine-3-sulfonamide]"
8,≥ 50,"NS(=O)(=O)c1ncc(C(=O)N2CC(c3ccc(F)cc3)C2)c(NC2(c3ccccc3)CC2)c1Cl [Compound 330, 3-chloro-5-[3-(4-fluorophenyl)azetidine-1-carbonyl]-4-(1-phenylcyclopropylamino)pyridine-2-sulfonamide]"
9,≥ 50,"Cc1cc(Nc2cc(S(N)(=O)=O)ncc2C(=O)N2CCC(c3ccc(F)cc3)CC2)c(Cl)cc1F [Compound 52, 4-(2-chloro-4-fluoro-5-methylphenylamino)-5-[4-(4-fluorophenyl)piperidine-1-carbonyl]pyridine-2-sulfonamide]"
10,≥ 50,"Cc1cc(F)ccc1Nc1cc(S(=O)(=O)N2CCCC2C(N)=O)ncc1C(=O)N1CCC(c2ccc(F)cc2)CC1 (centres unmarked) [Compound 123, 1-{4-(4-fluoro-2-methylphenylamino)-5-[4-(4-fluorophenyl)piperidine-1-carbonyl]pyridin-2-ylsulfonyl}pyrrolidine-2-carboxamide]"
11,≥ 50,"Cc1c(S(=O)(=O)Nc2ccon2)ncc(C(=O)N2CCC(c3ccc(F)cc3)CC2)c1Nc1ccc(C#N)cc1 [Compound 298, 4-(4-cyanophenylamino)-5-[4-(4-fluorophenyl)piperidine-1-carbonyl]-N-(isoxazol-3-yl)-3-methylpyridine-2-sulfonamide]"
12,≥ 50,"Cc1cc(F)ccc1Nc1cc(S(=O)(=O)Nc2cscn2)ncc1C(=O)N1CCC(c2ccc(F)cc2)CC1 [Compound 154, 4-(4-fluoro-2-methylphenylamino)-5-[4-(4-fluorophenyl)piperidine-1-carbonyl]-N-(thiazol-4-yl)pyridine-2-sulfonamide]"
13,≥ 50,"Cc1c(S(=O)(=O)Nc2ccon2)ncc(C(=O)N2CCC(c3ccc(F)cc3)CC2)c1Nc1cccc(F)c1F [Compound 254, 4-(2,3-difluorophenylamino)-5-[4-(4-fluorophenyl)piperidine-1-carbonyl]-N-(isoxazol-3-yl)-3-methylpyridine-2-sulfonamide]"
14,≥ 50,"NS(=O)(=O)c1cc(NCc2ccccc2)c(C(=O)N2CCC(c3ccc(F)cc3)CC2)cn1 [Compound 15, 4-(benzylamino)-5-[4-(4-fluorophenyl)piperidine-1-carbonyl]pyridine-2-sulfonamide]"
15,≥ 50,"Cc1cccc(Nc2c(C(=O)N3CCC(C(N)=O)(c4ccccc4)CC3)cnc(S(N)(=O)=O)c2Cl)c1 [Compound 203, 1-[5-chloro-6-sulfamoyl-4-(m-tolylamino)nicotinoyl]-4-phenylpiperidine-4-carboxamide]"
16,≥ 50,"Cc1c(S(=O)(=O)Nc2ccon2)ncc(C(=O)N2CCC(c3ccc(F)cc3)CC2)c1NCC1CCC1 [Compound 227, 4-(cyclobutylmethylamino)-5-[4-(4-fluorophenyl)piperidine-1-carbonyl]-N-(isoxazol-3-yl)-3-methylpyridine-2-sulfonamide]"
17,≥ 50,"NS(=O)(=O)c1ncc(C(=O)N2CC(c3ccc(F)cc3)C2)c(Nc2cccc(Cl)c2)c1Cl [Compound 283, 3-chloro-4-(3-chlorophenylamino)-5-[3-(4-fluorophenyl)azetidine-1-carbonyl]pyridine-2-sulfonamide]"
18,≥ 50,"Cc1cc(O)c(Cl)cc1Nc1cc(S(N)(=O)=O)ncc1C(=O)N1CCC(c2ccc(F)cc2)CC1 [Compound 105, 4-(5-chloro-4-hydroxy-2-methylphenylamino)-5-[4-(4-fluorophenyl)piperidine-1-carbonyl]pyridine-2-sulfonamide]"
19,≥ 50,"Cc1ccc(Cl)cc1Nc1c(C(=O)N2CC(c3ccc(F)cc3)C2)cnc(S(N)(=O)=O)c1Cl [Compound 314, 3-chloro-4-(5-chloro-2-methylphenylamino)-5-[3-(4-fluorophenyl)azetidine-1-carbonyl]pyridine-2-sulfonamide]"
20,≥ 50,"CCNC(=O)NS(=O)(=O)c1ncc(C(=O)N2CCC(c3ccc(F)cc3)CC2)c(Nc2ccccc2C)c1C [Compound 226, N-(ethylcarbamoyl)-5-[4-(4-fluorophenyl)piperidine-1-carbonyl]-3-methyl-4-(o-tolylamino)pyridine-2-sulfonamide]"
21,≥ 50,"Cc1cccc(Oc2c(C(=O)N3CCC(c4ccc(F)cc4)CC3)cnc(S(=O)(=O)Nc3ccon3)c2C)c1 [Compound 249, 5-[4-(4-fluorophenyl)piperidine-1-carbonyl]-N-(isoxazol-3-yl)-3-methyl-4-(m-tolyloxy)pyridine-2-sulfonamide]"
22,≥ 50,"Cc1ccc(Nc2cc(S(N)(=O)=O)ncc2C(=O)N2CCC(c3ccc(F)cc3)CC2)c(C)c1 [Compound 55, 4-(2,4-dimethylphenylamino)-5-[4-(4-fluorophenyl)piperidine-1-carbonyl]pyridine-2-sulfonamide]"
23,≥ 50,"COc1ccc(Nc2cc(S(N)(=O)=O)ncc2C(=O)N2CCC(c3ccc(F)cc3)CC2)c(C)c1 [Compound 78, 5-[4-(4-fluorophenyl)piperidine-1-carbonyl]-4-(4-methoxy-2-methylphenylamino)pyridine-2-sulfonamide]"
24,≥ 50,"Cc1ccc(Nc2cc(S(N)(=O)=O)ncc2C(=O)N2CCC(c3ccc(F)cc3)CC2)cc1F [Compound 64, 4-(3-fluoro-4-methylphenylamino)-5-[4-(4-fluorophenyl)piperidine-1-carbonyl]pyridine-2-sulfonamide]"
25,≥ 50,"NS(=O)(=O)c1cc(Nc2ccc3c(c2)COC3)c(C(=O)N2CCC(c3ccc(F)cc3)CC2)cn1 [Compound 3, 4-(1,3-dihydroisobenzofuran-5-ylamino)-5-[4-(4-fluorophenyl)piperidine-1-carbonyl]pyridine-2-sulfonamide]"
26,≥ 50,"NS(=O)(=O)c1ncc(C(=O)N2CCC(c3ccc(F)cc3)CC2)c(Nc2cccc(Br)c2)c1Cl [Compound 319, 4-(3-bromophenylamino)-3-chloro-5-[4-(4-fluorophenyl)piperidine-1-carbonyl]pyridine-2-sulfonamide]"
27,≥ 50,"NS(=O)(=O)c1ncc(C(=O)N2CCC(c3ccc(F)cc3)CC2)c(Cc2ccccc2)c1Cl [Compound 212, 4-benzyl-3-chloro-5-[4-(4-fluorophenyl)piperidine-1-carbonyl]pyridine-2-sulfonamide]"
28,≥ 50,"Cc1c(S(=O)(=O)Nc2ccon2)ncc(C(=O)N2CCC(c3ccc(F)cc3)CC2)c1Nc1ccc(F)c(F)c1 [Compound 258, 4-(3,4-difluorophenylamino)-5-[4-(4-fluorophenyl)piperidine-1-carbonyl]-N-(isoxazol-3-yl)-3-methylpyridine-2-sulfonamide]"
29,≥ 50,"Cc1cc(Nc2cc(S(=O)(=O)NC(=O)NC(C)C)ncc2C(=O)N2CCC(c3ccc(F)cc3)CC2)c(C)cc1Cl [Compound 18, 4-(4-chloro-2,5-dimethylphenylamino)-5-[4-(4-fluorophenyl)piperidine-1-carbonyl]-N-(isopropylcarbamoyl)pyridine-2-sulfonamide]"
